Earlier results, collected in patent US20260325503A1, “LONG-ACTING FORMULATIONS” (JANSSEN PHARMACEUTICA NV, priority 2022, published 2026).

Experiments:
[1] = test system: mycobacterial ATP synthase; settings: mycobacterial ATP synthase versus eukaryotic mitochondrial ATP synthase

SMILES: COc1nc2ccc(Br)cc2cc1[C@@H](c1ccccc1)[C@@](O)(CCN(C)C)c1cccc2ccccc12 [bedaquiline]
- selectivity index [1]: more than 20000
- minimal dose killing 99% of bacilli (M. tuberculosis): 30 mg/kg/wk
- minimal dose killing 99% of bacilli (Mycobacterium leprae; M. lepra): < 5.0 mg/kg/wk
- Bactericidal activity (in words) (Mycobacterium leprae; mycobacterium leprae, mice): bactericidal
